Measured values published in paper PMC8092170 (Indian Journal of Pharmacology, 2021).

Molecular target: T1, peroxisome proliferator-activated receptor gamma (PPARγ) (Homo sapiens, UniProt P37231)
T1 sequence (P37231 223-505 limits assumed): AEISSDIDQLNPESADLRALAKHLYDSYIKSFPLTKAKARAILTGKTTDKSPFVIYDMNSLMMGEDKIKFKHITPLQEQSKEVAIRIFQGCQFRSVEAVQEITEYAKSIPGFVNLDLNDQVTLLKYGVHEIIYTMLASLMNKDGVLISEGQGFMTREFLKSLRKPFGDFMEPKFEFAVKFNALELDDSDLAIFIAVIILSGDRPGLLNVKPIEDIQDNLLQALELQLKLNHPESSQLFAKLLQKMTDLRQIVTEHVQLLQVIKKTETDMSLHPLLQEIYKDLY
Assay: fluorescence polarization probe displacement
Format: binding

IC50: 23.9 µM
SMILES: O=c1c(-c2ccc(O)cc2)coc2cc(O)cc(O)c12 [genistein]
